Data from paper PMC11279916, “Application of ^99mTc-Labeled WL12 Peptides as a Tumor PD-L1-Targeted SPECT Imaging Agent: Kit Formulation, Preclinical Evaluation, and Study on the Influence of Coligands” (Pharmaceuticals, 2024).

Molecular target: PD-L1 protein (Homo sapiens, UniProt Q9NZQ7)
Assay: TR-FRET in vitro affinity assay (IC50)
Assay type: binding
Details: PD-L1-biotin / PD-1-Eu
Protocol: Fig. S3. HPLC analysis of HYNIC-WL12 (tR = 14.29 min, purity 95.84%).
In Vitro Affinity Assay: Determination of IC50
The affinity of WL12 and HYNIC-WL12 for the PD-L1 protein was determined via a time-resolved fluorescence energy transfer (TR-FRET) assay. In brief, 200 nL of WL12 or HYNIC-WL12 solutions at different concentrations (from 0.5-10000 nM) in 10% ethanol were transferred to 384-well plates on an Echo550 […]
instrument. Then, 5 µL of PD-L1-biotin solution was added, and the plates were centrifuged at 1000 rpm for 30 s and incubated at room temperature. After incubation for 15 min, the mixed solution containing PD-1-Eu and dye-labeled acceptor was added. Then, the plates were centrifuged at 1000 rpm for 30 s and incubated for 90 min at room temperature. Finally, the 665 nm-to-615 nm ratios were read on a microplate reader, and the IC50 values of the two peptides were calculated. […]
For RP-HPLC analysis of [99mTc]Tc-HYNIC-WL12-tricine/M, phase A was water containing 0.1% trifluoroacetic acid (TFA), and phase B was acetonitrile containing 0.1% trifluoroacetic acid (TFA). […] Additionally, the radiochemical purity of [99mTc]Tc-HYNIC-WL12-tricine/M was determined by instant thin layer chromatography on silica gel (iTLC-SG, Agilent, China) using acid-citrate-dextrose solution (ACD solution, pH = 4.5-5.5) as the mobile phase solvent. […]
Effect of HYNIC-WL12 Quantities on the Radiochemical Yield […]

Sequence of PD-L1 protein (Q9NZQ7 19-238 limits assumed): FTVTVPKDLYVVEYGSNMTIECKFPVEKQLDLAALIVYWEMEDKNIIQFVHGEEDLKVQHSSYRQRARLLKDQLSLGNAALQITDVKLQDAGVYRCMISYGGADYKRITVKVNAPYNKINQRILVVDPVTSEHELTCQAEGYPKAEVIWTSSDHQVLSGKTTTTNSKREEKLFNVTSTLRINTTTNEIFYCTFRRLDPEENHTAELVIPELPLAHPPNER

- IC50: 170 nM
Compound: CCCC[C@H]1C(=O)N(C)[C@@H](CCCC)C(=O)N[C@@H](CCCNC(=O)c2ccc(NN)nc2)C(=O)N[C@H](C(=O)NCC(N)=O)CSCC(=O)N[C@@H](Cc2ccc(O)cc2)C(=O)N(C)[C@@H](C)C(=O)N[C@@H](CC(N)=O)C(=O)N2CCC[C@H]2C(=O)N[C@@H](Cc2c[nH]cn2)C(=O)N[C@@H](CC(C)C)C(=O)N2C[C@H](O)C[C@H]2C(=O)N[C@@H](Cc2c[nH]c3ccccc23)C(=O)N[C@@H](CO)C(=O)N[C@@H](Cc2cn(C)c3ccccc23)C(=O)N1C [HYNIC-WL12]
